Test results as given in patent publication US20240374581A1, “SALT TYPES OF TRICYCLIC TETRAHYDRO ISOQUINOLINE DERIVATIVE” (JIANGSU HENGRUI PHARMACEUTICALS CO., LTD., priority 2021, published 2024).

What was measured:
[1] = Long-term/accelerated stability; type: physicochemical; conditions: for Crystal form: up to 3 months
CYP3A4 = CYP3A4 (Homo sapiens (Human), UniProt P08684); assay: Inhibition of site of metabolism of midazolam in human liver microsome CYP3A4; type: in vitro ADME; conditions: 30 min
Protocol: • 1. Phosphate buffer (20×PBS, purchased from Sangon); • 2. NADPH (ACROS, A2646-71-1); • 3. Human liver microsome (Corning Gentest, Cat No. 452161, Lot No. 9050002, Donor, 36); • 4. ABI QTrap 4000 LC-MS System (AB Sciex); • 5. ZORBAX Extend-C18, 3×50 mm, 3.5 m (Agilent, USA); • 6. CYP probe substrate (midazolam, TRC, M343000/3 μM) and positive control inhibitor (ketoconazole, SIGMA, Cat No. K1003-100MG).
A 100 mM PBS buffer was prepared. A 0.25 mg/mL microsome solution, a 7.5 mM MgCl2 and a 5 mM NADPH solution were prepared using the buffer. A 30 mM stock solution was diluted with DMSO to obtain 30 mM, 10 mM, 3 mM, 1 mM, 0.3 mM, 0.03 mM, 0.003 mM and 0 mM serial solutions I, which were further diluted 200-fold with phosphate buffer (PBS) to obtain serial test solutions II (150, 50, 15, 5, 1.5, 0.15, 0.015 and 0 μM). A midazolam working solution was diluted with PBS to 15 μM. 40 μL of a 0.25 mg/mL microsome solution prepared in 7.5 mM MgCl2 and 20 μL of each of the […] midazolam working solution and the compound working solutions (150, 50, 15, 5, 1.5, 0.15, 0.015 and 0 μM) were measured out and well mixed. Ketoconazole at the same concentration was used in place of the compound as a positive control group. […]
The IC50 value of the drug for the site of metabolism of midazolam in CYP3A4 was calculated by Graphpad Prism and is shown in Table 5.

[2] = Hygroscopicity study (DVS); type: physicochemical; conditions: 25° C.
Protocol: DVS refers to dynamic vapor sorption: The measurement was conducted on SMS DVS Advantage; at 25° C., the humidity was changed as follows: 50%-95%-0%-95%-50%, in steps of 10% (5% for the last step) (specific humidity ranges are shown in corresponding patterns, and those listed here were used in most cases); the criterion was dm/dt≤0.002%.
The measurement was conducted with a Surface Measurement Systems intrinsic at 25° C., starting from 50% humidity in humidity range of 0%-95%, in steps of 10%; the criterion was dM/dT≤0.002% and TMAX of 360 min in two cycles.

CYP3A4, sequence (P08684 whole entry): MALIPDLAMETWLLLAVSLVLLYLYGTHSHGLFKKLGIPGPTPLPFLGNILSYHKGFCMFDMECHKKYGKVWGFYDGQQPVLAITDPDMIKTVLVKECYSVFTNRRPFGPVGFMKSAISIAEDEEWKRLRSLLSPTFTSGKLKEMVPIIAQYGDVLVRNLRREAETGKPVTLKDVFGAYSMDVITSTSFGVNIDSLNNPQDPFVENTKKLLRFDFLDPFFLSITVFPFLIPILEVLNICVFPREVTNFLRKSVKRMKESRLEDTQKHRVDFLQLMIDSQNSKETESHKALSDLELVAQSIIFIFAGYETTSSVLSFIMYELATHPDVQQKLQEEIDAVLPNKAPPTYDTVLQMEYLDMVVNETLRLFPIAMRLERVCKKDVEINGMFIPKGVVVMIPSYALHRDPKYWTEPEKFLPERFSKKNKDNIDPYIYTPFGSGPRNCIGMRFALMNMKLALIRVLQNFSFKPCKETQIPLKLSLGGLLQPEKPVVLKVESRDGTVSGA

[2H]C1([2H])Oc2cc3c(cc2O1)[C@@H](c1ccc(NC2CN(CCCF)C2)cn1)N(CC(F)(F)CO)[C@H](C)C3 [Compound 1, 2,2-Difluoro-3-((5S,7R)-5-(5-((1-(3-fluoropropyl)azetidin-3-yl)amino)pyridin-2-yl)-7-methyl-7,8-dihydro-[1,3]dioxolo[4,5-g]isoquinolin-6(5H)-yl-2,2-d2)propan-1-ol]
Purity (%) 1 month ([1]; 25° C./60% RH): 97.1%
Purity (%) 2 months ([1]; 25° C./60% RH): 96.7%
Purity (%) 3 months ([1]; 25° C./60% RH): 96.7%
Purity (%) 7 days ([1]; 25° C./60% RH): 97.1%
Purity (%) 14 days ([1]; 25° C./60% RH): 97.0%
Purity (%) Initial ([1]; 25° C./60% RH): 97.1%
Crystal form ([1]; 25° C./60% RH): Unchanged
Purity (%) 1 month ([1]; 40° C./75% RH): 96.5%
Purity (%) 2 months ([1]; 40° C./75% RH): 95.5%
Purity (%) 3 months ([1]; 40° C./75% RH): 94.9%
Purity (%) 7 days ([1]; 40° C./75% RH): 96.8%
Purity (%) 14 days ([1]; 40° C./75% RH): 96.6%
Purity (%) Initial ([1]; 40° C./75% RH): 97.1%
Crystal form ([1]; 40° C./75% RH): Unchanged
IC50 (CYP3A4): 15.4 µM
Hygroscopicity grade ([2]; 0% RH-80.0% RH): hygroscopic
Crystal form after DVS [2]: Did not change
Hygroscopicity 0% RH-80.0% RH ([2]; DVS): 4.6%
Hygroscopicity 0.0% RH-95.0% RH ([2]; DVS): 6.7%
